Our source for the inhibition values is patent publication US20090176811A1, “Substituted 5,6,7,8-Tetrahydro-pyrido[4,3-d]pyrimidine-2-yl Compounds and 5,6,7,8-Tetrahydro-quinazoline-2-yl Compounds” (GRUENENTHAL GmbH, priority 2004, published 2009).

One assay deals with T1, mGluR5 receptor (Sus scrofa, UniProt I3LUI7).
T1 construct: 450 μg of protein from brain homogenate is incubated; from tissue; host or cells: pig brain hemispheres without medulla, cerebellum and pons
The assay can be described thus: Affinity for the mGluR5 receptor ([3H]-MPEP binding, pig brain homogenate). The note with it: 10 μM compound, 15 nM [3H]-MPEP. The protocol:
III. Method for Determining Affinity for the mGluR5 Receptor
Pig brain homogenate is produced by homogenisation (Polytron Pt 3000, Kinematica AG, 10,000 rpm (revolutions per minute) for 90 seconds) of pig brain hemispheres without medulla, cerebellum and pons in a buffer of pH 8.0 (30 mM Hepes, Sigma, order number H3375+1 tablet Complete Roche Diagnostics, order number 1836145 made up to 100 ml) in a ratio of 1:20 (brain weight/volume) and differential centrifugation at 900 g and 40,000 g. 450 μg of protein from brain homogenate is incubated in each case in 250 μl incubation batches in 96-well microtitre plates with 15 nM ^3[H]-MPEP (Tocris, order number R1212) and the compounds to be investigated (in each case 10 μM in the test) in the above-stated buffer at room temperature for 60 minutes.
The batches are then filtered with the assistance of a Brandel Cell Harvester (Brandel, Grade Robotic 9600) on Unifilter plates with glass filter mats (Perkin Elmer, order number 6005177) and then rewashed 3 times with buffer of the above-stated composition using 250 μl per sample. The filter plates are then dried for 60 minutes at 55° C. Then 30 μl of Ultima Gold scintillating material (Packard BioScience, order number 6013159) is added per well and after 3 hours the samples are measured using the B counter ([…], Perkin Elmer). Nonspecific binding is determined by the addition of 10 μM 2-methyl-6-(phenylethynyl)-pyridine (Tocris, order number 1212).

The target in another assay is T2, 5-HT transporter (Rattus norvegicus, UniProt P31652).
T2 construct: from tissue; host or cells: rat medulla and pons synaptosomes (P2 fraction)
The assay can be described thus: 5-HT uptake inhibition in rat brain synaptosomes (medulla and pons). The assay is classed as biochemical. An outline of the steps:
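Freshly isolated P2 synaptosomes from rat hypothalamus (noradrenalin) or medulla and pons (5-HT) incubated at room temperature under O2 with [3H]-NA for 7.5 min or [3H]-5-HT for 5 min. Uptake measured by filtration and scintillation counting.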

Structures are written as SMILES.

T2 sequence (P31652 whole entry): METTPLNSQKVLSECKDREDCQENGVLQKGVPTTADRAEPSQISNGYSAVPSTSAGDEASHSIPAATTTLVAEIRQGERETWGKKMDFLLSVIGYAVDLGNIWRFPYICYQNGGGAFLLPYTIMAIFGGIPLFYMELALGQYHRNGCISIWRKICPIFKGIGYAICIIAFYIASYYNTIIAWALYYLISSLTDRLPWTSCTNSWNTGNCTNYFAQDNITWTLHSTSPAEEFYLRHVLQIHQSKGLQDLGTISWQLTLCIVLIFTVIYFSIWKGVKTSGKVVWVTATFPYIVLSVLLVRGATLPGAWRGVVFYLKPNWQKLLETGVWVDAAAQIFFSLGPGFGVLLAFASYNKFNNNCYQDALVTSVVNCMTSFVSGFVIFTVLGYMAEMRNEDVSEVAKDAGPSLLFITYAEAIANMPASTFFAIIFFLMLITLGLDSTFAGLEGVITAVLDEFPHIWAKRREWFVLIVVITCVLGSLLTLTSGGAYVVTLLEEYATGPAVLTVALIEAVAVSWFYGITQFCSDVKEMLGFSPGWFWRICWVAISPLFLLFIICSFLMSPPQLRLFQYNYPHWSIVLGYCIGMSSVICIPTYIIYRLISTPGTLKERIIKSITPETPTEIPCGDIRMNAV
T1 sequence (I3LUI7 19-1212): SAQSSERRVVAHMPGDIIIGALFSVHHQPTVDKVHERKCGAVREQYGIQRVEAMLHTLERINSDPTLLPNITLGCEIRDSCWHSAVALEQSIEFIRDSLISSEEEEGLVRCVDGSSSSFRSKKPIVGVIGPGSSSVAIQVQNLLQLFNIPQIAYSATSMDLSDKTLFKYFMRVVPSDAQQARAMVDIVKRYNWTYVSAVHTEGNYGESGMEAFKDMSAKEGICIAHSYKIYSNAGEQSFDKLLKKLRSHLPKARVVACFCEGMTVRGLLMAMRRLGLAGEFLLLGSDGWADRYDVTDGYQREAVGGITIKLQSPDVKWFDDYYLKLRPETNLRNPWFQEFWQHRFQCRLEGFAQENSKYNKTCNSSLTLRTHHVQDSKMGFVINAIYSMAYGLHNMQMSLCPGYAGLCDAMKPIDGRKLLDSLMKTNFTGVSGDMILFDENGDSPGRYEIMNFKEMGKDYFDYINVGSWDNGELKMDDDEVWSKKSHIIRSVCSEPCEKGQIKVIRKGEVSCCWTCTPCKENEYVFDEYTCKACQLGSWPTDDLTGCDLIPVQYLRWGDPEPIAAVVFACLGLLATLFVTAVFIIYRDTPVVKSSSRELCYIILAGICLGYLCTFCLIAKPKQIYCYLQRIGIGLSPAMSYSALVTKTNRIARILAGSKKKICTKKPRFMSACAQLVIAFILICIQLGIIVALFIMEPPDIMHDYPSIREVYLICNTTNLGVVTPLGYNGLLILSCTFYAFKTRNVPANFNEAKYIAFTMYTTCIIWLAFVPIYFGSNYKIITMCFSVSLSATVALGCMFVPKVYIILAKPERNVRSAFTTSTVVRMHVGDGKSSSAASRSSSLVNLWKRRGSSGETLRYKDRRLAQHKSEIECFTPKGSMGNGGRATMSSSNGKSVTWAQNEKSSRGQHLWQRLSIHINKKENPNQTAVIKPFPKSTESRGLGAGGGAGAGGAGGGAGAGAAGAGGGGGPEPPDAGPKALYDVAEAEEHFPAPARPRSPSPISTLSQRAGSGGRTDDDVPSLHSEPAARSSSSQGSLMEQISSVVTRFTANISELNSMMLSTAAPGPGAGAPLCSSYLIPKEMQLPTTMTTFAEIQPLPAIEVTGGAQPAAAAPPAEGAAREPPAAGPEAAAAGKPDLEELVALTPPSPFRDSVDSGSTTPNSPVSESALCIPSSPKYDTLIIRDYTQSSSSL

For the compound `O=C(Cc1cccc2ccccc12)NC1CCc2nc(NC(=O)c3cccs3)ncc2C1` (centres unmarked) [Example 177, thiophene-2-carboxylic acid [6-(2-naphthalen-1-yl-acetylamino)-5,6,7,8-tetrahydro-quinazolin-2-yl]-amide], the inhibition at 10 µM on mGluR5 receptor was determined as 42%. The compound also came in with an inhibition at 1 µM against 5-HT transporter of 39%.

Consider `O=C(Nc1ncc2c(n1)CCN(S(=O)(=O)Cc1ccccc1)C2)c1ccc(F)cc1` [Example 178, 4-fluoro-N-(6-phenylmethanesulfonyl-5,6,7,8-tetrahydro-pyrido[4,3-d]pyrimidin-2-yl)-benzamide], for which testing at 10 µM on mGluR5 receptor gave an inhibition of 45.3%.

Take `COc1ccccc1C(=O)Nc1ncc2c(n1)CCN(C(=O)c1cc(-c3ccc(Cl)cc3)oc1C)C2` [Example 78, N-{6-[5-(4-chloro-phenyl)-2-methyl-furan-3-carbonyl]-5,6,7,8-tetrahydro-pyrido[4,3-d]pyrimidin-2-yl}-2-methoxy-benzamide]: at mGluR5 receptor, the inhibition at 10 µM amounted to 41.1%.

`O=C(CCCCCNC(=O)OCc1ccccc1)NC1CCc2nc(NC(=O)c3ccc(F)cc3)ncc2C1` (centres unmarked) [Example 181, {5-[2-(4-fluoro-benzoylamino)-5,6,7,8-tetrahydro-quinazolin-6-ylcarbamoyl]-pentyl}-carbamic acid benzyl ester]: at 10 µM the inhibition on mGluR5 receptor was 36.4%.

In turn, `CCCC(=O)Nc1ncc2c(n1)CCC(NS(=O)(=O)c1cccc(C)c1)C2` (centres unmarked) [Example 146, N-[6-(toluene-3-sulfonylamino)-5,6,7,8-tetrahydro-quinazolin-2-yl]-butyramide] had an inhibition at 10 µM at mGluR5 receptor of 39.6%.

At mGluR5 receptor, `CCCC(=O)Nc1ncc2c(n1)CCC(NC(=O)C=Cc1cccc(C(F)(F)F)c1)C2` (centres unmarked) [Example 168, N-(2-butyrylamino-5,6,7,8-tetrahydro-quinazolin-6-yl)-3-(3-trifluoromethyl-phenyl)-acrylamide] yielded an inhibition at 10 µM of 33.5%. This compound had an inhibition at 1 µM against 5-HT transporter of 46%.

In turn, `CC(C)(C)c1ccc(C(=O)Nc2ncc3c(n2)CCN(C(=O)c2csc(-c4ccccc4)n2)C3)cc1` [Example 29, 4-tert-butyl-N-[6-(2-phenyl-thiazole-4-carbonyl)-5,6,7,8-tetrahydro-pyrido[4,3-d]pyrimidin-2-yl]-benzamide] yielded an inhibition at 10 µM at mGluR5 receptor of 40.5%.

The compound `O=C(Nc1ncc2c(n1)CCN(C(=O)c1ccc(F)cc1F)C2)c1ccc(Cl)cc1` [Example 152, 4-chloro-N-[6-(2,4-difluoro-benzoyl)-5,6,7,8-tetrahydro-pyrido[4,3-d]pyrimidin-2-yl]-benzamide] displayed an inhibition at 10 µM at mGluR5 receptor of 34%. At 5-HT transporter, this compound had an inhibition at 1 µM of 33%.

As usually defined, the inhibition is the change of the read-out against control, counted positive when it falls.
